Results as given in ChEMBL document CHEMBL4507284, “Data for DCP probe BI-1230” (2021).

Assays:
[1] = biological target: Ribosomal protein S6 kinase alpha-3 (Homo sapiens) (UniProt P51812); settings: Compound concentration 1000.0 nM
[2] = biological target: Tyrosine-protein kinase Fgr (Homo sapiens) (UniProt P09769); settings: Compound concentration 1000.0 nM
[3] = biological target: Serine/threonine-protein kinase haspin (Homo sapiens) (UniProt Q8TF76); settings: Compound concentration 1000.0 nM
[4] = biological target: Tyrosine-protein kinase Lyn (Homo sapiens) (UniProt P07948); settings: Compound concentration 1000.0 nM
[5] = biological target: Proto-oncogene tyrosine-protein kinase Src (Homo sapiens) (UniProt P12931); settings: Compound concentration 1000.0 nM
[6] = biological target: Serine/threonine-protein kinase D2 (Homo sapiens) (UniProt Q9BZL6); settings: Compound concentration 1000.0 nM
[7] = biological target: Serine/threonine-protein kinase SIK1 (Homo sapiens) (UniProt P57059); settings: Compound concentration 1000.0 nM
[8] = biological target: 5'-AMP-activated protein kinase catalytic subunit alpha-2 (Homo sapiens) (UniProt P54646); settings: Compound concentration 1000.0 nM
5'-AMP-activated protein kinase catalytic subunit alpha-2 (Homo sapiens), sequence (P54646 whole entry, looked up): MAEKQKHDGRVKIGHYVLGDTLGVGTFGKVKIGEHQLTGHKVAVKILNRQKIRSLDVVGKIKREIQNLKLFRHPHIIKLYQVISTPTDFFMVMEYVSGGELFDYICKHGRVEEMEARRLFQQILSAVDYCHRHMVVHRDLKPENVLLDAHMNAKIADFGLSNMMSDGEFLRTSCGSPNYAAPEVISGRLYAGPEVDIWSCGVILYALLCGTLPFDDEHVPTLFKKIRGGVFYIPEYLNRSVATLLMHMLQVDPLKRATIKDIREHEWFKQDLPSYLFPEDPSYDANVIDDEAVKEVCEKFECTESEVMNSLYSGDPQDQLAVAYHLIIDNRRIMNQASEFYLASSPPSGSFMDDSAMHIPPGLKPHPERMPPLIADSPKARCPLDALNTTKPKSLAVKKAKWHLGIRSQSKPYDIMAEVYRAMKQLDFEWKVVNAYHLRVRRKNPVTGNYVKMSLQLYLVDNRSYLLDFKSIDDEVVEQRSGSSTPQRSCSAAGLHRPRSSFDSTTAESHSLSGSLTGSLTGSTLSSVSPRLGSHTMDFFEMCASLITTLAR

[9] = biological target: Macrophage colony-stimulating factor 1 receptor (Homo sapiens) (UniProt P07333); settings: Compound concentration 1000.0 nM
[10] = biological target: Mitogen-activated protein kinase kinase kinase 11 (Homo sapiens) (UniProt Q16584); settings: Compound concentration 1000.0 nM
[11] = biological target: Death-associated protein kinase 1 (Homo sapiens) (UniProt P53355); settings: Compound concentration 1000.0 nM
[12] = biological target: Leucine-rich repeat serine/threonine-protein kinase 2 (Homo sapiens) (UniProt Q5S007); settings: Compound concentration 1000.0 nM
Leucine-rich repeat serine/threonine-protein kinase 2 (Homo sapiens), sequence (Q5S007 whole entry): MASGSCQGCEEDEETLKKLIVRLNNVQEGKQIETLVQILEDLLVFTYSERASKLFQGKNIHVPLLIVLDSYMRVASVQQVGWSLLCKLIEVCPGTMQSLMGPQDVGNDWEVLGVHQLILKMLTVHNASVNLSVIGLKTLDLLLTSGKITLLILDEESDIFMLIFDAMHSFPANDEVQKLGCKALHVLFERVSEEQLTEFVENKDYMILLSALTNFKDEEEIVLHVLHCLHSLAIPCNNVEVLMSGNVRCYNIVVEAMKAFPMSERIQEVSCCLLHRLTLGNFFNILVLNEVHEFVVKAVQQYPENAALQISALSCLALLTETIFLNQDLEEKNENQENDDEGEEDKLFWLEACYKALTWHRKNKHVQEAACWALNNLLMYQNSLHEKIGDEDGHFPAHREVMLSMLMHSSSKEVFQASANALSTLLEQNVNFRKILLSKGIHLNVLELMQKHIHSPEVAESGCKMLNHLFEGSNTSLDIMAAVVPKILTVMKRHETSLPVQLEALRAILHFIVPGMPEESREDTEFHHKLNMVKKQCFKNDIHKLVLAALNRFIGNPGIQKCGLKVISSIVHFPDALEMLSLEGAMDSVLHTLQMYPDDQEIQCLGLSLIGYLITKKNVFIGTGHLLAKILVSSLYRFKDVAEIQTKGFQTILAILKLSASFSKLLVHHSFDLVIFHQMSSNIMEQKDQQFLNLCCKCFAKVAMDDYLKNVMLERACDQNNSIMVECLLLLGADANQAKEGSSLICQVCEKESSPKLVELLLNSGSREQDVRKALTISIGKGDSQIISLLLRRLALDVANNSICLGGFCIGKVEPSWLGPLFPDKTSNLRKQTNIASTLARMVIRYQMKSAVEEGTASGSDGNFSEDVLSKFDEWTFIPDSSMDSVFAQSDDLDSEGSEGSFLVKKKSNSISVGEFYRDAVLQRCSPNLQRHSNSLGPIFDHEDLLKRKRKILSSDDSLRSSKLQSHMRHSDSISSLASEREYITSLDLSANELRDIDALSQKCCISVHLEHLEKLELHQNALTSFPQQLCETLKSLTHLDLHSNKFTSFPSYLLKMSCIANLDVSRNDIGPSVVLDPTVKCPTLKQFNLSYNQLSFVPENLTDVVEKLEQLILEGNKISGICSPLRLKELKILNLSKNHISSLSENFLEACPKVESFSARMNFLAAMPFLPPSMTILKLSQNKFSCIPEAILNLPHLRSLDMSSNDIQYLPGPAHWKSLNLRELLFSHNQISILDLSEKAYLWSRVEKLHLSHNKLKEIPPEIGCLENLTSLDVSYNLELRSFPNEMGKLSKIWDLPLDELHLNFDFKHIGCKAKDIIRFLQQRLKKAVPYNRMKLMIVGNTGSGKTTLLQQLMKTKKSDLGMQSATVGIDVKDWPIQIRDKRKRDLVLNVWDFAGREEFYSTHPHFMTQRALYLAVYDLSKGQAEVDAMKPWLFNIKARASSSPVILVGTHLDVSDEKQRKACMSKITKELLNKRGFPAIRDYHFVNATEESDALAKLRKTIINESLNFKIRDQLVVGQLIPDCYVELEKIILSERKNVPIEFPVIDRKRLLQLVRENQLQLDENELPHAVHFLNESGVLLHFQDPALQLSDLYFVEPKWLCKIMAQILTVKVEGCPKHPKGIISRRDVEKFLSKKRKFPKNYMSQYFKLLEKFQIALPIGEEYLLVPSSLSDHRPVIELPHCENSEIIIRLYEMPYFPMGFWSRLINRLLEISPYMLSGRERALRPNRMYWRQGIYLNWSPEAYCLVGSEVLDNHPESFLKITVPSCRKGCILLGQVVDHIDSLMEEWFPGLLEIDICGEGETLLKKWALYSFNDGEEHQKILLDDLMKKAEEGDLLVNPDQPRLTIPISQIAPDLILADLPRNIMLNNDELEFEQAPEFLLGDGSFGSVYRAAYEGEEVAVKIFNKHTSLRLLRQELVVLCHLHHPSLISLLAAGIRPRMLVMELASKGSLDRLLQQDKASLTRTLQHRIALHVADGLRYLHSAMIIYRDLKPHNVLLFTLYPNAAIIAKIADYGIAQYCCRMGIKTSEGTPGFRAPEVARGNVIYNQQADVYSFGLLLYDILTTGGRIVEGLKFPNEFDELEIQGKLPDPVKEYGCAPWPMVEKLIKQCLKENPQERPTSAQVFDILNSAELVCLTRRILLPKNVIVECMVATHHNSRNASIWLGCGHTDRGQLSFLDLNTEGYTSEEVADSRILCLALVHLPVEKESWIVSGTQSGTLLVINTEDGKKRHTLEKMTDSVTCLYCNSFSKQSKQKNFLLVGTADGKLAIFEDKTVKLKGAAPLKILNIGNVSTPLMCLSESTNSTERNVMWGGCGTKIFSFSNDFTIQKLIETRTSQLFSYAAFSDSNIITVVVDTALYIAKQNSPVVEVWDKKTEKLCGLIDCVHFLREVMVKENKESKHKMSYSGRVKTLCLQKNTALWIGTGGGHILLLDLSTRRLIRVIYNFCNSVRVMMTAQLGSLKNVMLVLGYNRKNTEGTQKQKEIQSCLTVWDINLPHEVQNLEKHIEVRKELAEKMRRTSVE

[13] = biological target: AP2-associated protein kinase 1 (Homo sapiens) (UniProt Q2M2I8); settings: Compound concentration 1000.0 nM
[14] = biological target: Activated CDC42 kinase 1 (Homo sapiens) (UniProt Q07912); settings: Compound concentration 1000.0 nM
[15] = test system: Tyrosine-protein kinase ABL1 (Homo sapiens), P00519 [Y253F]; settings: Compound concentration 1000.0 nM
[16] = biological target: Protein-tyrosine kinase 6 (Homo sapiens) (UniProt Q13882); settings: Compound concentration 1000.0 nM
[17] = test system: Tyrosine-protein kinase ABL1 (Homo sapiens), P00519 [T315I]; settings: Compound concentration 1000.0 nM
[18] = biological target: NUAK family SNF1-like kinase 1 (Homo sapiens) (UniProt O60285); settings: Compound concentration 1000.0 nM
[19] = biological target: Angiopoietin-1 receptor (Homo sapiens) (UniProt Q02763); settings: Compound concentration 1000.0 nM
Angiopoietin-1 receptor (Homo sapiens), sequence (Q02763 whole entry): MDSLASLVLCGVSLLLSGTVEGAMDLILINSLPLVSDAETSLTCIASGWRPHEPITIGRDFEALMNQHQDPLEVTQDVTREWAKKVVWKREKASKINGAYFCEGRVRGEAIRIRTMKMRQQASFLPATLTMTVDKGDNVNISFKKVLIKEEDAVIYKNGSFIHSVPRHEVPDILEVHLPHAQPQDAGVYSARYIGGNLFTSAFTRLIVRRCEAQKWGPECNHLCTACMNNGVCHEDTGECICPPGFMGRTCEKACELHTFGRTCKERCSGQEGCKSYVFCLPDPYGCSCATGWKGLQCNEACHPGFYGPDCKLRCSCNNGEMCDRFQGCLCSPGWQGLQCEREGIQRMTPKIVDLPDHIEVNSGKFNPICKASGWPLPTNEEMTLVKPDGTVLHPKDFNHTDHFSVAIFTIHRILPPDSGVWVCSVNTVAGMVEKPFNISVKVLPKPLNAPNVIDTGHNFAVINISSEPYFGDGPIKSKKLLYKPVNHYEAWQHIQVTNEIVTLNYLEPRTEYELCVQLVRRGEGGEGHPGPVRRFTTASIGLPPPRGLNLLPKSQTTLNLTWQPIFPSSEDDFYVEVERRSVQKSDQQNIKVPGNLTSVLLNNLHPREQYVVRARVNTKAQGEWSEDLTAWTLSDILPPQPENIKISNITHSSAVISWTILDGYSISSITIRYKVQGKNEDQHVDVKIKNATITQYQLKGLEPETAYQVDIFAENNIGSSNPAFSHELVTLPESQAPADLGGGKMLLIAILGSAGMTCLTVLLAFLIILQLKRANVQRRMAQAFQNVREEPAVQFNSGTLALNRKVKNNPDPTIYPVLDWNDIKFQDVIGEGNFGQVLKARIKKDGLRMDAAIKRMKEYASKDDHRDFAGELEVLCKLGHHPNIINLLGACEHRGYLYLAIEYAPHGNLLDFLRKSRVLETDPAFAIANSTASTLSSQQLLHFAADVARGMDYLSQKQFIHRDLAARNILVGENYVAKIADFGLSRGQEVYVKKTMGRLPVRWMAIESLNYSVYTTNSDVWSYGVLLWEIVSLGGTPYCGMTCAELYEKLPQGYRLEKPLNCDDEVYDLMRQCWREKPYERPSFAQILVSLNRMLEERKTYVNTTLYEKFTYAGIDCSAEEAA

[20] = biological target: cGMP-dependent protein kinase 2 (Homo sapiens) (UniProt Q13237); settings: Compound concentration 1000.0 nM
[21] = biological target: Serine/threonine-protein kinase STK11 (Homo sapiens) (UniProt Q15831); settings: Compound concentration 1000.0 nM
[22] = biological target: SRSF protein kinase 1 (Homo sapiens) (UniProt Q96SB4); settings: Compound concentration 1000.0 nM
[23] = biological target: Sigma intracellular receptor 2 (Homo sapiens) (UniProt Q5BJF2); settings: Compound concentration 10.0 uM
[24] = test system: Tyrosine-protein kinase ABL1 (Homo sapiens), P00519 [F317I]; settings: Compound concentration 1000.0 nM
[25] = biological target: Serine/threonine-protein kinase pim-2 (Homo sapiens) (UniProt Q9P1W9); settings: Compound concentration 1000.0 nM
[26] = biological target: Epidermal growth factor receptor (Homo sapiens) (UniProt P00533); settings: Compound concentration 1000.0 nM
[27] = biological target: Serine/threonine-protein kinase N1 (Homo sapiens) (UniProt Q16512); settings: Compound concentration 1000.0 nM
[28] = biological target: Mitogen-activated protein kinase 4 (Homo sapiens) (UniProt P31152); settings: Compound concentration 1000.0 nM
[29] = biological target: Bone morphogenetic protein receptor type-1B (Homo sapiens) (UniProt O00238); settings: Compound concentration 1000.0 nM
[30] = biological target: Mitogen-activated protein kinase kinase kinase kinase 5 (Homo sapiens) (UniProt Q9Y4K4); settings: Compound concentration 1000.0 nM
[31] = biological target: Tyrosine-protein kinase JAK1 (Homo sapiens) (UniProt P23458); settings: Compound concentration 1000.0 nM
[32] = biological target: Cyclin-dependent kinase 5 (Homo sapiens) (UniProt Q00535); settings: Compound concentration 1000.0 nM
Cyclin-dependent kinase 5 (Homo sapiens), sequence (Q00535 whole entry, looked up): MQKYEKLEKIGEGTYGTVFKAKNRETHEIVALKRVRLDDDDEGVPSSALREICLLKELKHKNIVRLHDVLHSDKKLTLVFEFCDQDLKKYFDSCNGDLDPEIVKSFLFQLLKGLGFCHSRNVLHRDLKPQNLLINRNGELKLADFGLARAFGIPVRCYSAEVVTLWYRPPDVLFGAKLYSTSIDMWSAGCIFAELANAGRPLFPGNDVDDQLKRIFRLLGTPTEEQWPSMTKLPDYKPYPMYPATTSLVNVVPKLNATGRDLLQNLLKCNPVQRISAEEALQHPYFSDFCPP

[33] = biological target: Fibroblast growth factor receptor 1 (Homo sapiens) (UniProt P11362); settings: Compound concentration 1000.0 nM
[34] = test system: Epidermal growth factor receptor (Homo sapiens), P00533 [UNDEFINED MUTATION]; settings: Compound concentration 1000.0 nM
[35] = biological target: Tyrosine-protein kinase Mer (Homo sapiens) (UniProt Q12866); settings: Compound concentration 1000.0 nM
[36] = biological target: Testis-specific serine/threonine-protein kinase 1 (Homo sapiens) (UniProt Q9BXA7); settings: Compound concentration 1000.0 nM
[37] = biological target: Mitogen-activated protein kinase 14 (Homo sapiens) (UniProt Q16539); settings: Compound concentration 1000.0 nM
[38] = biological target: Cyclin-dependent kinase 19 (Homo sapiens) (UniProt Q9BWU1); settings: Compound concentration 1000.0 nM
[39] = biological target: Serine/threonine-protein kinase ICK (Homo sapiens) (UniProt Q9UPZ9); settings: Compound concentration 1000.0 nM
[40] = biological target: Serine/threonine-protein kinase 3 (Homo sapiens) (UniProt Q13188); settings: Compound concentration 1000.0 nM
[41] = biological target: Atypical kinase COQ8B, mitochondrial (Homo sapiens) (UniProt Q96D53); settings: Compound concentration 1000.0 nM
Atypical kinase COQ8B, mitochondrial (Homo sapiens), sequence (Q96D53 whole entry): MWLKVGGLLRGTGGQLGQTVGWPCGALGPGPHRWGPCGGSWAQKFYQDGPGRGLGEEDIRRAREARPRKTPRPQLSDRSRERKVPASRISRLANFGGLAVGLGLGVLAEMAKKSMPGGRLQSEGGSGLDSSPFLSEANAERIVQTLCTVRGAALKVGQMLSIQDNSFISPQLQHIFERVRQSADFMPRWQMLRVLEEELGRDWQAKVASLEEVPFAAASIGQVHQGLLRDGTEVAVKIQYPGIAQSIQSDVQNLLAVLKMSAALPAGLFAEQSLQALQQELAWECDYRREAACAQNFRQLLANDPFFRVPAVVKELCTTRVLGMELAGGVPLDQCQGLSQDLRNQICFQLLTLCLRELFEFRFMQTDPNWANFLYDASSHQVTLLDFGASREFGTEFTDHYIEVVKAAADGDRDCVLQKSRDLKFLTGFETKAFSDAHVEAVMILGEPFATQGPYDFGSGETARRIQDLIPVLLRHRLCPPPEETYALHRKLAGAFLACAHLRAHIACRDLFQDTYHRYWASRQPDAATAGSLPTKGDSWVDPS

[42] = biological target: G protein-coupled receptor kinase 3 (Homo sapiens) (UniProt P35626); settings: Compound concentration 1000.0 nM
[43] = biological target: Citron Rho-interacting kinase (Homo sapiens) (UniProt O14578); settings: Compound concentration 1000.0 nM
[44] = biological target: MAP kinase-activated protein kinase 5 (Homo sapiens) (UniProt Q8IW41); settings: Compound concentration 1000.0 nM
[45] = biological target: Insulin receptor (Homo sapiens) (UniProt P06213); settings: Compound concentration 1000.0 nM
[46] = biological target: Casein kinase I isoform alpha (Homo sapiens) (UniProt P48729); settings: Compound concentration 1000.0 nM

O=C(N[C@H]1CCCCC/C=C\C2C[C@@]2(C(=O)O)NC(=O)[C@@H]2C[C@@H](Oc3ccncc3)CN2C1=O)OC1CCCC1 (some centres not stated) [BI 1675]
residual activity [1]: 89% | residual activity [2]: 100% | residual activity [3]: 100% | residual activity [4]: 87% | residual activity [5]: 100% | residual activity [6]: 100% | residual activity [7]: 83% | residual activity [8]: 71% | residual activity [9]: 92% | residual activity [10]: 97% | residual activity [11]: 83% | residual activity [12]: 100% | residual activity [13]: 77% | residual activity [14]: 100% | residual activity [15]: 100% | residual activity [16]: 100% | residual activity [17]: 84% | residual activity [18]: 99% | residual activity [19]: 100% | residual activity [20]: 88% | residual activity [21]: 85% | residual activity [22]: 91% | inhibition [23]: 18.5% | residual activity [24]: 100% | residual activity [25]: 100% | residual activity [26]: 99% | residual activity [27]: 100% | residual activity [28]: 100% | residual activity [29]: 95% | residual activity [30]: 100% | residual activity [31]: 89% | residual activity [32]: 77% | residual activity [33]: 100% | residual activity [34]: 49% | residual activity [35]: 64% | residual activity [36]: 77% | residual activity [37]: 94% | residual activity [38]: 91% | residual activity [39]: 85% | residual activity [40]: 76% | residual activity [41]: 100% | residual activity [42]: 100% | residual activity [43]: 89% | residual activity [44]: 96% | residual activity [45]: 100% | residual activity [46]: 80%

COc1ccc2c(O[C@@H]3C[C@H]4C(=O)N[C@]5(C(=O)O)CC5/C=C\CCCCC[C@H](NC(=O)OC5CCCC5)C(=O)N4C3)cc(-c3csc(NC(=O)C(C)C)n3)nc2c1C (some centres not stated) [BI 1230]
residual activity [1]: 82% | residual activity [2]: 100% | residual activity [3]: 97% | residual activity [4]: 94% | residual activity [5]: 100% | residual activity [6]: 95% | residual activity [7]: 100% | residual activity [8]: 87% | residual activity [9]: 89% | residual activity [10]: 100% | residual activity [11]: 100% | residual activity [12]: 92% | residual activity [13]: 100% | residual activity [14]: 100% | residual activity [15]: 87% | residual activity [16]: 97% | residual activity [17]: 87% | residual activity [18]: 92% | residual activity [19]: 100% | residual activity [20]: 84% | residual activity [21]: 100% | residual activity [22]: 100% | inhibition [23]: 28% | residual activity [24]: 90% | residual activity [25]: 100% | residual activity [26]: 92% | residual activity [27]: 100% | residual activity [28]: 93% | residual activity [29]: 77% | residual activity [30]: 100% | residual activity [31]: 75% | residual activity [32]: 97% | residual activity [33]: 98% | residual activity [34]: 62% | residual activity [35]: 70% | residual activity [36]: 70% | residual activity [37]: 100% | residual activity [38]: 90% | residual activity [39]: 68% | residual activity [40]: 86% | residual activity [41]: 100% | residual activity [42]: 99% | residual activity [43]: 99% | residual activity [44]: 88% | residual activity [45]: 94% | residual activity [46]: 68%
